In patent publication US10660876B2, “Amino compounds for treatment of medical disorders” (Achillion Pharmaceuticals, Inc., priority 2015, dated 2020):

The compounds below were run against Human Factor D (Homo sapiens (Human), UniProt P00746) (assay: Human Factor D Assay). Conditions: Table 1; Factor D purified from human serum, 80 nM, substrate Z-L-Lys-SBzl; read-out: IC50.
Human Factor D, sequence (P00746 26-253): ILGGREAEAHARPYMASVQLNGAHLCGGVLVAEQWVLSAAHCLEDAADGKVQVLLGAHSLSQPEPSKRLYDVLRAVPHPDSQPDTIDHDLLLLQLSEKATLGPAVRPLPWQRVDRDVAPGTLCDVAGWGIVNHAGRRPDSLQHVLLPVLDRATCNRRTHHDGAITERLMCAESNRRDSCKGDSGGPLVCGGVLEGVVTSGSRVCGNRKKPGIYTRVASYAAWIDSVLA
Assay type: biochemical
Procedure: Example 12. Human Factor D Assay
Human Factor D (purified from human serum, Complement Technology, Inc.) at 80 nM final concentration is incubated with test compound at various concentrations for 5 minutes at room temperature in 50 mM Tris, 1M NaCl, pH 7.5. A synthetic substrate Z-L-Lys-SBzl and DTNB (Ellman's reagent) are added to final concentrations of 100 μM each. Absorbance at 405 nm (A405) is recorded at 30 second intervals for 30 minutes using a microplate spectrophotometer. IC50 values are calculated by nonlinear regression of complement Factor D reaction rates as a function of test compound concentration.
`CC(=O)c1cn(CC(=O)N2C[C@H](F)C[C@H]2C(=O)Nc2cncc(Cl)n2)c2ccc(Nc3cncnc3)cc12` [Compound 33, (2S,4R)-1-(2-(3-acetyl-5-(pyrimidin-5-ylamino)-1H-indol-1-yl)acetyl)-N-(6-chloropyrazin-2-yl)-4-fluoropyrrolidine-2-carboxamide] showed an IC50 of less than 1000 nM. `CC(=O)c1cn(CC(=O)N2C[C@H](F)C[C@H]2C(=O)Nc2ccc3ncsc3c2)c2ccc(Nc3cncnc3)cc12` [Compound 56, (2S,4R)-1-(2-(3-acetyl-5-(pyrimidin-5-ylamino)-1H-indol-1-yl)acetyl)-N-(benzo[d]thiazol-6-yl)-4-fluoropyrrolidine-2-carboxamide] was tested, and the IC50 was less than 1000 nM. In the case of `CC(=O)c1cn(CC(=O)N2C[C@H](F)C[C@H]2C(=O)Nc2nc(-c3ccccc3Cl)ns2)c2ccc(Nc3cncnc3)cc12` [Compound 29, (2S,4R)-1-(2-(3-acetyl-5-(pyrimidin-5-ylamino)-1H-indol-1-yl)acetyl)-N-(3-(2-chlorophenyl)-1,2,4-thiadiazol-5-yl)-4-fluoropyrrolidine-2-carboxamide], the IC50 is reported as less than 1000 nM. With `CC(=O)c1cn(CC(=O)N2C[C@H](F)C[C@H]2C(=O)Nc2cncc(Cl)c2)c2ccc(Nc3cncnc3)cc12` [Compound 22, (2S,4R)-1-(2-(3-acetyl-5-(pyrimidin-5-ylamino)-1H-indol-1-yl)acetyl)-N-(5-chloropyridin-3-yl)-4-fluoropyrrolidine-2-carboxamide] the IC50 was less than 1000 nM. `NC(=O)c1nn(CC(=O)N2C[C@H](F)C[C@H]2C(=O)Nc2cccc(-c3ccccc3Cl)c2F)c2ccc(Nc3cccnn3)cc12` [Compound 9, 1-(2-((2S,4R)-2-(2′-chloro-2-fluorobiphenyl-3-ylcarbamoyl)-4-fluoropyrrolidin-1-yl)-2-oxoethyl)-5-(pyridazin-3-ylamino)-1H-indazole-3-carboxamide] gave an IC50 of less than 1000 nM. `CC(=O)c1cn(CC(=O)N2C[C@H](F)C[C@H]2C(=O)NCc2ccncc2)c2ccc(Nc3cncnc3)cc12` [Compound 59, (2S,4R)-1-(2-(3-acetyl-5-(pyrimidin-5-ylamino)-1H-indol-1-yl)acetyl)-4-fluoro-N-(pyridin-4-ylmethyl) pyrrolidine-2-carboxamide] gave an IC50 of less than 1000 nM. For `CC(=O)c1cn(CC(=O)N2C[C@H](F)C[C@H]2C(=O)Nc2ccccc2-c2nncn2C)c2ccc(Nc3cncnc3)cc12` [Compound 61, (2S,4R)-1-(2-(3-acetyl-5-(pyrimidin-5-ylamino)-1H-indol-1-yl)acetyl)-4-fluoro-N-(2-(4-methyl-4H-1,2,4-triazol-3-yl)phenyl) pyrrolidine-2-carboxamide], the IC50 was greater than 10000 nM. With `CC(=O)c1cn(CC(=O)N2C[C@H](F)C[C@H]2C(=O)Nc2cccc3c2OC(C)(C)C3)c2ccc(Nc3cncnc3)cc12` [Compound 24, (2S,4R)-1-(2-(3-acetyl-5-(pyrimidin-5-ylamino)-1H-indol-1-yl)acetyl)-N-(2,2-dimethyl-2,3-dihydrobenzofuran-7-yl)-4-fluoropyrrolidine-2-carboxamide] the IC50 was less than 1000 nM. `CC(=O)c1cn(CC(=O)N2C[C@H](F)C[C@H]2C(=O)NC2CCCc3nc(-c4ccc(F)cc4)sc32)c2ccc(Nc3cncnc3)cc12` (stereo partly drawn) [Compound 28, (2S,4R)-1-(2-(3-acetyl-5-(pyrimidin-5-ylamino)-1H-indol-1-yl)acetyl)-4-fluoro-N-(2-(4-fluorophenyl)-4,5,6,7-tetrahydrobenzo[d]thiazol-7-yl)pyrrolidine-2-carboxamide] showed an IC50 greater than 10000 nM. `N#Cc1cnc(Nc2ccc3c(c2)c(C(N)=O)nn3CC(=O)N2C[C@H](F)C[C@H]2C(=O)Nc2cccc(-c3ccccc3Cl)c2F)nc1` [Compound 13, 1-(2-((2S,4R)-2-(2′-chloro-2-fluorobiphenyl-3-ylcarbamoyl)-4-fluoropyrrolidin-1-yl)-2-oxoethyl)-5-(5-cyanopyrimidin-2-ylamino)-1H-indazole-3-carboxamide] gave an IC50 of less than 1000 nM. In the case of `CC(=O)c1cn(CC(=O)N2C[C@H](F)C[C@H]2C(=O)NCc2cccc(Cl)c2F)c2cc(NS(=O)(=O)C(F)(F)F)ccc12` [Compound 2, (2S,4R)-1-(2-(3-acetyl-6-(trifluoromethyl-sulfonamido)-1H-indol-1-yl)acetyl)-N-(3-chloro-2-fluorobenzyl)-4-fluoropyrrolidine-2-carboxamide], the IC50 is reported as less than 1000 nM. Compound `CC(=O)c1cn(CC(=O)N2C[C@H](F)C[C@H]2C(=O)Nc2ccc(F)c(-c3nnc4n3CCCCC4)c2)c2ccc(Nc3cncnc3)cc12` [Compound 26, (2S,4R)-1-(2-(3-acetyl-5-(pyrimidin-5-ylamino)-1H-indol-1-yl)acetyl)-4-fluoro-N-(4-fluoro-3-(6,7,8,9-tetrahydro-5H-[1,2,4]triazolo[4,3-a]azepin-3-yl)phenyl) pyrrolidine-2-carboxamide] has an IC50 of less than 1000 nM. `CC(=O)c1cn(CC(=O)N2C[C@H](F)C[C@H]2C(=O)Nc2cncc(Br)c2)c2ccc(Nc3cncnc3)cc12` [Compound 21, (2S,4R)-1-(2-(3-acetyl-5-(pyrimidin-5-ylamino)-1H-indol-1-yl)acetyl)-N-(5-bromopyridin-3-yl)-4-fluoropyrrolidine-2-carboxamide] showed an IC50 of less than 1000 nM. Compound `CC(=O)c1cn(CC(=O)N2C[C@H](F)C[C@H]2C(=O)N[C@@H](C)c2oc3ccc(F)cc3c2C)c2ccc(Nc3cncnc3)cc12` [Compound 75, (2S,4R)-1-(2-(3-acetyl-5-(pyrimidin-5-ylamino)-1H-indol-1-yl)acetyl)-4-fluoro-N-((S)-1-(5-fluoro-3-methylbenzofuran-2-yl)ethyl) pyrrolidine-2-carboxamide] has an IC50 of less than 1000 nM. Compound `CC(=O)c1cn(CC(=O)N2C[C@H](F)C[C@H]2C(=O)Nc2cc(C)nn2-c2ccccc2F)c2ccc(Nc3cncnc3)cc12` [Compound 57, (2S,4R)-1-(2-(3-acetyl-5-(pyrimidin-5-ylamino)-1H-indol-1-yl)acetyl)-4-fluoro-N-(1-(2-fluorophenyl)-3-methyl-1H-pyrazol-5-yl)pyrrolidine-2-carboxamide] has an IC50 of less than 1000 nM. With `CC(=O)c1cn(CC(=O)N2C[C@H](F)C[C@H]2C(=O)Nc2ccc3cn[nH]c3c2)c2ccc(Nc3cncnc3)cc12` [Compound 25, (2S,4R)-1-(2-(3-acetyl-5-(pyrimidin-5-ylamino)-1H-indol-1-yl)acetyl)-4-fluoro-N-(1H-indazol-6-yl)pyrrolidine-2-carboxamide] the IC50 was less than 1000 nM. `CC(=O)c1cn(CC(=O)N2C[C@H](F)C[C@H]2C(=O)Nc2cc(C3CC3C)no2)c2ccc(Nc3cncnc3)cc12` (stereo partly drawn) [Compound 65, (2S,4R)-1-(2-(3-acetyl-5-(pyrimidin-5-ylamino)-1H-indol-1-yl)acetyl)-4-fluoro-N-(3-(2-methylcyclopropyl)isoxazol-5-yl)pyrrolidine-2-carboxamide] showed an IC50 of less than 1000 nM. With `CC(=O)c1cn(CC(=O)N2C[C@H](F)C[C@H]2C(=O)Nc2cccc3c2NC(=O)C(C)O3)c2ccc(Nc3cncnc3)cc12` (stereo partly drawn) [Compound 71, (2S,4R)-1-(2-(3-acetyl-5-(pyrimidin-5-ylamino)-1H-indol-1-yl)acetyl)-4-fluoro-N-(2-methyl-3-oxo-3,4-dihydro-2H-benzo[b][1,4]oxazin-5-yl)pyrrolidine-2-carboxamide] the IC50 was 1000 to 10000 nM. `CC(=O)c1cn(CC(=O)N2C[C@H](F)C[C@H]2C(=O)NC2CCCN(c3cc(C)ccc3F)C2=O)c2ccc(Nc3cncnc3)cc12` (stereo partly drawn) [Compound 63, (2S,4R)-1-(2-(3-acetyl-5-(pyrimidin-5-ylamino)-1H-indol-1-yl)acetyl)-4-fluoro-N-(1-(2-fluoro-5-methylphenyl)-2-oxopiperidin-3-yl)pyrrolidine-2-carboxamide] was tested, and the IC50 was less than 1000 nM. With `NC(=O)c1nn(CC(=O)N2C[C@H](F)C[C@H]2C(=O)Nc2cccc(Cl)n2)c2ccc(Nc3cncnc3)cc12` [Compound 12, 1-(2-((2S,4R)-2-(6-chloropyridin-2-ylcarbamoyl)-4-fluoropyrrolidin-1-yl)-2-oxoethyl)-5-(pyrimidin-5-ylamino)-1H-indazole-3-carboxamide] the IC50 was less than 1000 nM. Compound `CC(=O)c1cn(CC(=O)N2C[C@H](F)C[C@H]2C(=O)NC2CCCN(c3cnn(C)c3)C2)c2ccc(Nc3cncnc3)cc12` (stereo partly drawn) [Compound 42, (2S,4R)-1-(2-(3-acetyl-5-(pyrimidin-5-ylamino)-1H-indol-1-yl)acetyl)-4-fluoro-N-(1-(1-methyl-1H-pyrazol-4-yl)piperidin-3-yl)pyrrolidine-2-carboxamide] has an IC50 of less than 1000 nM. In the case of `CC(=O)c1cn(CC(=O)N2C[C@H](F)C[C@H]2C(=O)Nc2cc(O)ccn2)c2ccc(Nc3cncnc3)cc12` [Compound 72, (2S,4R)-1-(2-(3-acetyl-5-(pyrimidin-5-ylamino)-1H-indol-1-yl)acetyl)-4-fluoro-N-(4-hydroxypyridin-2-yl)pyrrolidine-2-carboxamide], the IC50 is reported as less than 1000 nM. `CC(=O)c1cn(CC(=O)N2C[C@H](F)C[C@H]2C(=O)N[C@H](C)c2oc3ccc(F)cc3c2C)c2ccc(Nc3cncnc3)cc12` [Compound 74, (2S,4R)-1-(2-(3-acetyl-5-(pyrimidin-5-ylamino)-1H-indol-1-yl)acetyl)-4-fluoro-N-((R)-1-(5-fluoro-3-methyl-benzofuran-2-yl)ethyl) pyrrolidine-2-carboxamide] showed an IC50 greater than 10000 nM.

Same assay, conditions: Table 3; Factor D purified from human serum, 80 nM, substrate Z-L-Lys-SBzl; read-out: IC50 (Stars)
For `CC(=O)c1cn(CC(=O)N2CC[C@H]2C(=O)Nc2cccc(C)n2)c2ccc(Nc3cncnc3)cc12` [Compound 160, (S)-1-(2-(3-acetyl-5-(pyrimidin-5-ylamino)-1H-indol-1-yl)acetyl)-N-(6-methylpyridin-2-yl)azetidine-2-carboxamide], the IC50 was greater than 10000 nM. With `Cc1cccc(NC(=O)[C@@H]2[C@@H]3CCC(C3)N2C(=O)Cn2cc(C(N)=O)c3cc(Nc4ccc(Cl)nn4)ccc32)n1` [Compound 162, 5-((6-chloropyridazin-3-yl)amino)-1-(2-((3S,4R)-3-((6-methylpyridin-2-yl)carbamoyl)-2-azabicyclo[2.2.1]heptan-2-yl)-2-oxoethyl)-1H-indole-3-carboxamide] the IC50 was less than 1000 nM.
